Source: patent publication US9585957B2, “Adenosine receptor agonists and antagonists to modulate T cell responses” (THE JOHNS HOPKINS UNIVERSITY, priority 2007, dated 2017)
Like-named read-outs stand apart in the source and are kept apart here.

Experiments:
A.E7 T cell clones = assay: Cytokine production and CD25 expression of A.E7s stimulated with anti-CD3 and anti-CD28 in the presence of CGS; type: cell-based; conditions: for IC50: T-cell
Description: Studies were conducted to determine the effects of A2a receptor stimulation on T cell function. A.E7 is a clonotypic CD4', Th1 T cell clone specific for pigeon cytochrome c (PCC) and is maintained as previously described (Powell, […]. & Schwartz, R. H. Inhibition of cell cycle progression by rapamycin induces T cell clonal anergy even in the presence of costimulation. J Immunol 162, 2775-84 (1999)). A.[…] were rendered anergic with anti-CD3 or by incubation with APC, PCC and 1 pM CGS-21680. For antibody induced anergy, 6-well plates were previously coated with anti-CD3 three hours prior to stimulation and washed with PBS. For mock stimulations, the well was not coated with anti-CD3. A.[…] were incubated in the coated well overnight at 37° C., then harvested and washed extensively and rested (24 hours for CAMP measurement, 4-6 days for proliferation and cytokine production). […] To assess proliferation to PCC, T cells were extensively washed and 5×10^6 cells were added to 50×10^4 irradiated BIO.A splenocytes and increasing doses of PCC in triplicate in a 96-well flat-bottomed plate. After 48 hours, cells were pulsed with [^3H] thymidine and harvested 16 hrs later. Tritium incorporation was determined by a Packard Matrix 96 direct beta counter (Packard bioscience). […] All conditions were done in triplicate and were cultured overnight. Supernatant was collected and assessed for cytokine levels (eBioscience for IL-2, IFN-y, TNF-a; R&D Systems for GM-CSF) as per manufacturers' instructions. For each sample, multiple dilutions of the supernatant were assayed and concentration was determined based upon the dilution that best fit the most linear aspect of the standard curve. For CD25 measurements, the cells used for cytokine production were stained with anti-CD25, harvested and measured by flow cytometry.

A.E7 T cells = assay: Anergy induction in A.E7 T cells: incubation with APCs, PCC and CGS, then rechallenge without CGS; type: cell-based
Description: A.E7 is a clonotypic CD4^+, Th1 T cell clone specific for pigeon cytochrome c (PCC) and is maintained as previously described (Powell et al. J Immunol. 1999; 162:2775-2784).
Studies were conducted to determine the effects of A2a receptor stimulation on T cell function. A.E7 is a clonotypic CD4′, Th1 T cell clone specific for pigeon cytochrome c (PCC) and is maintained as previously described (Powell, J. D., Lerner, C. G. & Schwartz, R. H. Inhibition of cell cycle progression by rapamycin induces T cell clonal anergy even in the presence of costimulation. J Immunol 162, 2775-84 (1999)). A.E7s were rendered anergic with anti-CD3 or by incubation with APC, PCC and […] CGS-21680. For antibody induced anergy, 6-well plates were previously coated with anti-CD3 three hours prior to stimulation and washed with PBS. For mock stimulations, the well was not coated with anti-CD3. A.E7s were incubated in the coated well overnight at 37° C., then harvested and washed extensively and rested (24 hours for CAMP measurement, 4-6 days for proliferation and cytokine production). […] A.E7s were then isolated via a ficoll gradient, washed extensively, and immediately rechallenged for proliferation and cytokine production. To assess proliferation to PCC, T cells were extensively washed and 5×10^6 cells were added to 50×10^4 irradiated BIO.A splenocytes and increasing doses of PCC in triplicate in a 96-well flat-bottomed plate. After 48 hours, cells were pulsed with [^3H] thymidine and harvested 16 hrs later. Tritium incorporation was determined by a Packard Matrix 96 direct beta counter (Packard bioscience). For cytokine production, a 96-well round-bottom plate was preincubated with […] anti-CD3 for 3 hours. […] All conditions were done in triplicate and were cultured overnight. Supernatant was collected and assessed for cytokine levels (eBioscience for IL-2, IFN-y, TNF-a; R&D Systems for GM-CSF) as per manufacturers' instructions. For each sample, multiple dilutions of the supernatant were assayed and concentration was determined based upon the dilution that best fit the most linear aspect of the standard curve. For CD25 measurements, the cells used for cytokine production were stained with anti-CD25, harvested and measured by flow cytometry.
Next, the T cells were isolated and rechallenged with APCs and peptide in the absence of CGS (secondary stimulation).

[1] = test system: 6.5+ T cells in C3HA mice; assay: Survival of C3HA mice after adoptive transfer of 6.5+ T cells (mouse model of autoimmunity); type: in vivo
Description: Clonotypic CD4^+ T cells were harvested from 6.5^+ transgenic mice. The unfractionated population was resuspended to contain 1.2×10^6 6.5^+ T cells in 200 uL of HBSS for i.v. injection through the tail vein of C3HA mice. […] The percentage of CD4^+, 6.5^+, Thy 1.1^−, Thy 1.2^− clonotypic T cells was determined by flow cytometric analysis. CD44 level was also analyzed to ensure that these clonotypic T cells were not activated in donor mice and were naive in phenotype. The cells were washed three times with HBSS and the unfractionated population was resuspended to contain the appropriate number of clonotypic T cells in 200 uL of HBSS for i.v. injection through the tail vein of C3HA.
A survival curve was generated from two separate experiments for a total of 17 mice for each condition.

## CCNC(=O)[C@H]1O[C@@H](n2cnc3c(N)nc(NCCc4ccc(CCC(=O)O)cc4)nc32)[C@H](O)[C@@H]1O [CGS, 2-p-(2-carboxyethyl)phenethyl-amino-5-N-ethyl-carboxamidoadenosine]
A.E7 T cell clones; A.E7 T cell clones activated with anti-CD3 and anti-CD28 in the presence of CGS
  cytokine production: dose-dependent inhibition
A.E7 T cell clones; read-out: ID50, inhibition of GM-CSF production
  IC50: 9.1 nM
A.E7 T cell clones; read-out: ID50, inhibition of IFN-γ production
  IC50: 760 nM
A.E7 T cell clones; read-out: ID50, inhibition of IL-2 production
  IC50: 4.7 nM
A.E7 T cell clones; read-out: ID50, inhibition of TNF-α production
  IC50: 100 nM
A.E7 T cell clones; anti-CD3 and anti-CD28, 20 nM CGS (FIG. 1d)
  production of the chemokine MIP-1α: not inhibited
A.E7 T cell clones; anti-CD3 and anti-CD28, 1 μM CGS (FIG. 1b)
  TCR-induced CD25 expression: did not inhibit
A.E7 T cell clones; anti-CD3 and anti-CD28 in the presence of the A2a receptor agonist, 20 nM CGS (FIG. 1d)
  IL-2 production: markedly decreased
A.E7 T cells; 1 μM CGS during mock induction, no peptide present, rechallenge without CGS (FIG. 2a)
  response upon rechallenge after mock induction: no effect
A.E7 T cells; 1 μM CGS with peptide during initial stimulation, rechallenge without CGS (FIG. 2b)
  proliferation upon rechallenge: reduced proliferation
A.E7 T cells; 1 μM CGS with peptide during initial stimulation, rechallenge without CGS (FIG. 2c)
  IFN-γ production upon rechallenge: reduced
A.E7 T cells; peptide, exogenous IL-2 and 1 μM CGS during induction (FIGS. 2d and e)
  induction of anergy in the presence of exogenous IL-2: the presence of IL-2 prevented the ability of CGS to induce anergy
[1]; C3HA mice receiving LAG-3 null T cells, 4 day treatment with CGS (FIG. 5c)
  effect on mice receiving LAG-3 null T cells: no affect
[1]; C3HA mice receiving Wt T cells, 4 day treatment with CGS (FIG. 5c)
  mice in which death was prevented, Wt T cells: 100%
[1]; C3HA mice, lethal dose of 6.5+ T cells, CGS 2.5 mg/kg i.p. twice daily for four days after transfer (FIG. 4a)
  long-term survival of mice: 80%
[1]; C3HA recipients given A2a receptor KO 6.5+ T cells, CGS treatment (FIG. 4d)
  protection of mice given A2a receptor KO T cells: fails to protect
